From article PMC10403075, “Short hydrocarbon stapled ApoC2-mimetic peptides activate lipoprotein lipase and lower plasma triglycerides in mice” (Frontiers in Cardiovascular Medicine, 2023)
Read-outs that look alike come from different tables or passages of the source. Residues, ends and D or L forms follow the SMILES beside them.

Experiments:
[1] = Circular dichroism spectroscopy; assay type: physicochemical; details: CD 190-250 nm, 0.1 cm cell, calculated from spectrum
Procedure: Circular dichroism (CD) spectra were acquired on a Chirascan Q100 spectrometer. CD spectra were recorded in the190–250 nm range, using a 0.1 cm quartz cell and analyzed with Bettsele® on-line software ([24]).

Proteinase K = Proteinase K (Parengyodontium album, UniProt P06873); assay type: in vitro ADME
Sequence of Proteinase K (P06873 106-384): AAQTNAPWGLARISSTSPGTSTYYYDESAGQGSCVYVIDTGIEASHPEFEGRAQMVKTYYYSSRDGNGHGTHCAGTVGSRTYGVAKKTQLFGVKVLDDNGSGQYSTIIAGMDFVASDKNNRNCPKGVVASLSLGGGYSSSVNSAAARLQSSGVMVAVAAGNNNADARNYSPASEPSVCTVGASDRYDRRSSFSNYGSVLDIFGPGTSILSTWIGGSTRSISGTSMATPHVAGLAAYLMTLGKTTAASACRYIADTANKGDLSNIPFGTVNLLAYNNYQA
Procedure: (§1) Peptides (0.1 mM) were incubated at 37°C in 20 mM ammonium bicarbonate buffer at pH 8.2, with 10 ug/ml trypsin or […] Proteinase K. To test resistance to Pepsin, peptides (0.1 mM) were incubated with Pepsin (3 mg/ml) in 0.02M acetate buffer (pH 2). The amount of intact peptide was monitored over time by Matrix-assisted laser desorption/ionization time-of-flight (MALDI-TOF) on a Bruker Autoflex III instrument (Bruker Optics, Inc., USA). Internal standards (Bombesin, ACTH (1–17), ACTH (18–39) and Insulin) were used to quantify the relative amount of peptide in each sample.

LPL from bovine milk [2] = target: T1, LPL from bovine milk (Bos taurus, UniProt P11151); assay: In vitro LPL activity assay (NEFA generation, ApoC2-deficient plasma substrate); assay type: biochemical
T1 construct: LPL from bovine milk (Sigma-Aldrich); purchased Sigma-Aldrich; host or cells: bovine milk (natural source)
T1 sequence (P11151 29-478): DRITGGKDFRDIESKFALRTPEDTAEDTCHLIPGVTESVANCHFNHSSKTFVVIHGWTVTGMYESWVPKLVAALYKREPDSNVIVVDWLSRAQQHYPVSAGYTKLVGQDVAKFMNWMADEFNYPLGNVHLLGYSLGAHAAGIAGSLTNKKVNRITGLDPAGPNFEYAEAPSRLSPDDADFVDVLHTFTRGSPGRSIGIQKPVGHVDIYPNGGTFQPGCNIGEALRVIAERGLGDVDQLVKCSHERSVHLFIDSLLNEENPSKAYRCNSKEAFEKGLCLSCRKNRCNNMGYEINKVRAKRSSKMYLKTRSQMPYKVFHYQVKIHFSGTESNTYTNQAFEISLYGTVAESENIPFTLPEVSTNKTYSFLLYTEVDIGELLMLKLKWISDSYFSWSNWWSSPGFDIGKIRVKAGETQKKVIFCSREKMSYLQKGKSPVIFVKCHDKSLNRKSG
Procedure: (§2) LPL activity was determined by measuring the generation of non-esterified fatty acids (NEFA). In a 96-well plate, 0–2 µM of an ApoC2 mimetic peptide, 0.83 nM of LPL from bovine milk (Sigma-Aldrich), ApoC2-deficient ethylenediaminetetraacetic acid (EDTA)-plasma (diluted with PBS to a final TG concentration of 0.67 mg/dl), 2 IU/ml heparin, 0.2% fatty acids free bovine serum albumin (BSA) (ICN Biomedicals), and PBS (Life Technologies) were combined in a final reaction volume of 50 μl. The reaction mixture was pre-incubated on ice for 30 min and incubated at 37°C for 1 h. NEFA were measured with a coupled enzyme reaction (Wako Diagnostics) in a Synergy H1 microplate reader (BioTek, USA).

Pepsin = assay: Peptide proteolysis resistance, pepsin; assay type: in vitro ADME; details: peptide 0.1 mM, pepsin 3 mg/ml, 0.02M acetate buffer pH 2, 1 h, MALDI-TOF with internal standards, triplicates
Procedure: as §1

LPL from bovine milk [3] = target: T1, LPL from bovine milk; assay: In vitro LPL activation assay after pepsin treatment; assay type: biochemical; details: 1 h pepsin at pH 2, then pH neutralised; compared with untreated peptide, area-under-the-curve, triplicates
Procedure: as §2, §1
Figure 4 Peptide proteolysis resistance. […]

trypsin = assay: Peptide proteolysis resistance, trypsin; assay type: in vitro ADME; details: peptide 0.1 mM, 10 ug/ml trypsin, 20 mM ammonium bicarbonate pH 8.2, 37°C, MALDI-TOF with internal standards, first time point 3 h, triplicates
Procedure: as §1

[4] = DMPC vesicle clearance (solubilization) assay; assay type: physicochemical; details: peptide 0-100 µM in 20 mM TRIS pH 8.2, DMPC vesicles 0.5 mg/ml in PBS, absorbance 660 nm, 1 h, 24°C
Procedure: Dimyristoyl Phosphatidyl Choline (DMPC) (Avanti 850345C) vesicles were made by sonication (0.5 mg/ml) in phosphate buffer saline (PBS). Peptides (0, 25, 50 and 100 µM) in 20 mM TRIS, pH 8.2 were added to DMPC vesicles (0.5 mg/ml) prepared by sonication in PBS and turbidity was monitored in a Victor^3 plate reader (Perkin Elmer, USA) by monitoring absorbance at 660 nm for 1 h at 24°C. Samples were shaken at 300 RPM. Absorbance over time was plotted and areas-under-the-curve (AOC) were calculated. PBS was used as a negative control sample and Triton X-100 at a final concentration of 1% (w/v) was used as positive control.

Apoc2^h/h mice [5] = details: ApoC2 hypomorphic mice, single intravenous injection, within a few hours; cited from earlier work
From the text: (§3) We recently developed a bi-helical ApoC2 mimetic peptide called D6PV that contains 41 amino acids ([16]). ApoC2 mimetic peptides could potentially be used as a treatment for pancreatitis in patients with genetic APOC2 deficiency and for the prevention of cardiovascular disease in patients with moderate elevations in plasma triglycerides ([1]). […] Except for one amino acid substitution, the secon ...

hAPOC3-tg mice = details: ApoC3 transgenic mice; cited from earlier work
From the text: as §3

human LPL = target: T2, human LPL (Homo sapiens, UniProt P06858); assay: Isothermal titration calorimetry LPL activity assay in pooled human plasma; assay type: biochemical; details: normolipidemic pooled human EDTA-plasma nearly undiluted, 1 nM human LPL injections, 25°C, initial rate, on top of endogenous activators, triplicates
T2 sequence (P06858 28-475): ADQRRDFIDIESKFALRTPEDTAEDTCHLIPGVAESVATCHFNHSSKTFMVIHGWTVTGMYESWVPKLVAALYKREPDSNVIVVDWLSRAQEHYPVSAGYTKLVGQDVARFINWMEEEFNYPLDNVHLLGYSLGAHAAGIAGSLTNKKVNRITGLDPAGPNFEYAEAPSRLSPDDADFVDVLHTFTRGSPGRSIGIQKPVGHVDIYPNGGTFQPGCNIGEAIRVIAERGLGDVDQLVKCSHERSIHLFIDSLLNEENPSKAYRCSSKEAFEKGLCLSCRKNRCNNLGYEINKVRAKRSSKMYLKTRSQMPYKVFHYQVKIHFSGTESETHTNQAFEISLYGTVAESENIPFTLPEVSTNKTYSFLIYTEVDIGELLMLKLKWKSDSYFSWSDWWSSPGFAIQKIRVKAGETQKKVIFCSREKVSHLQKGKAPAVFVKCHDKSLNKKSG
Procedure: Isothermal titration calorimetry (ITC) measurements, which depends upon the initial rate of reaction, were performed to assess peptide activation of LPL in nearly undiluted human plasma as previously described ([22], [23]). Peptides in 20 mM TRIS, pH 8.2 at the indicated concentrations were added to a normolipidemic EDTA-plasma pool. The reaction was initiated by three sequential injections of 1 nM human LPL. The heat of the reaction was monitored with the iTC200 calorimeter (GE Healthcare, USA) and the initial reaction rates at 25°C were converted into relative activity units.

Apoc2^h/h mice [6] = assay: Plasma lipids in ApoC2-hypomorphic mice after peptide injection; assay type: in vivo, mouse; details: single IP 1 umole/kg, n = 4
Procedure: ApoC2–hypomorphic mice (Apoc2^h/h) ([25]) and human ApoC3-transgenic (hAPOC3-tg) mice ([26]) were fed a regular rodent chow diet (NIH-31 chow diet: Zeigler Brothers Inc.). Peptides dissolved in 20 mM TRIS (pH 8.2) or vehicle control were injected intraperitoneally or intravenously at the indicated concentrations. Blood samples were collected from the retro-orbital sinus with a heparinized capillary tube. Whole blood was centrifuged at 1,000 g for 20 min at 4°C to obtain plasma. All animal procedures were approved by the National Heart, Lung, and Blood Institute Animal Care and Use Committee (protocol #H-0050).

Row | SMILES | alpha-helical secondary structure by CD [1] [%] | intact full-length peptide after Proteinase K incubation (Proteinase K; peptide 0.1 mM, 16 ug/kg Proteinase K, 20 mM ammonium bicarbonate pH 8.2, 37°C, MALDI-TOF with internal standards, first time point 3 h, triplicates) | in vitro LPL activation, dose response (result in words) (LPL from bovine milk [2]; 0-2 µM peptide, bovine milk LPL, ApoC2-deficient plasma substrate, 37°C 1 h, NEFA read-out, triplicates) | intact full-length peptide after pepsin incubation (Pepsin) | ability to activate LPL after pepsin treatment (LPL from bovine milk [3]) | intact full-length peptide after trypsin incubation (trypsin) | DMPC vesicle solubilization [4] | plasma TG (Apoc2^h/h mice [5]) | plasma TG (hAPOC3-tg mice) | intact full-length peptide after Proteinase K incubation (Proteinase K; pH 8.2) | EC50 (LPL from bovine milk [2]) [nM] | LPL activity by isothermal titration calorimetry (human LPL) | reduction in plasma triglycerides (Apoc2^h/h mice [6]; 3 h after injection) [%] | plasma cholesterol (Apoc2^h/h mice [6])
1 | CCCC[C@H](NC(=O)[C@H](C)NC(C)=O)C(=O)N[C@]1(C)CCCCCCC=CCCCC2(CCCC=CCCCCCC[C@@](C)(C(=O)N[C@@H](CCCCN)C(=O)N(C)CC(=O)N[C@H](CCC(=O)O)C(=O)N[C@H](CCC(=O)O)C(=O)O)NC(=O)[C@H](C(C)C)NC(=O)[C@H](CO)NC(=O)[C@H](CC(C)C)NC(=O)[C@H](C(C)C)NC(=O)[C@H](CCC(N)=O)NC(=O)[C@H](CC(=O)O)NC2=O)NC(=O)[C@H](Cc2ccccc2)NC(=O)[C@H]([C@@H](C)CC)NC(=O)CNC(=O)[C@H]([C@@H](C)O)NC(=O)[C@H](Cc2ccc(O)cc2)NC(=O)[C@H]([C@@H](C)O)NC1=O (stereo partly drawn) [SP2] | 46 | resistant to both proteases | slightly more potent than SP1 | resistant to proteolysis | fully active | resistant to both proteases | most effective in solubilizing DMPC vesicles |  |  |  |  |  |  | 
2 | CC[C@H](C)[C@H](NC(=O)CNC(=O)[C@@H](NC(=O)[C@H](Cc1ccc(O)cc1)NC(=O)[C@@H](NC(=O)[C@H](CO)NC(=O)[C@@H](NC(=O)[C@H](C)NC(=O)[C@@H]1CCCN1C(=O)[C@@H](NC(=O)[C@H](Cc1ccccc1)NC(=O)[C@H](CCCCN)NC(=O)[C@H](CCC(=O)O)NC(=O)[C@H](Cc1ccc(O)cc1)NC(=O)[C@H](CC(C)C)NC(=O)[C@H](CC(=O)O)NC(=O)[C@H](CCCNC(=N)N)NC(=O)[C@H](CC(C)C)NC(=O)[C@H](CCCCN)NC(=O)[C@H](CCC(=O)O)NC(=O)[C@H](Cc1ccccc1)NC(=O)[C@@H](NC(=O)[C@H](CCC(=O)O)NC(=O)[C@H](CCCCN)NC(=O)[C@H](CC(C)C)NC(=O)[C@H](Cc1ccc(O)cc1)NC(=O)[C@@H](N)CC(=O)O)C(C)C)[C@@H](C)O)C(C)C)[C@@H](C)O)[C@@H](C)O)C(=O)N[C@@H](Cc1ccccc1)C(=O)N[C@H](C(=O)N[C@@H](CC(=O)O)C(=O)N[C@@H](CCC(N)=O)C(=O)N[C@H](C(=O)N[C@@H](CC(C)C)C(=O)N[C@@H](CO)C(=O)N[C@H](C(=O)N[C@@H](CC(C)C)C(=O)N[C@@H](CCCCN)C(=O)NCC(=O)N[C@@H](CCC(=O)O)C(=O)N[C@@H](CCC(=O)O)C(=O)O)C(C)C)C(C)C)[C@@H](C)O [D6PV, reference compound] (H-DYLKEVFEKLRDLYEKFTPAVSTYTGIFTDQVLSVLKGEE-OH; N-terminus assumed) | 42 |  |  | No intact peptide was observed | almost completely inactive | essentially no intact peptide was detected |  | markedly lowered TG | lowered TG | essentially no intact peptide was detected | 107 | doubled the activity of LPL | > 90 | lowered plasma cholesterol
